Data taken from patent EP1082333B1, “THIOCO[…], PREPARATION AND THERAPEUTIC APPLICATION” (SANOFI-SYNTHELABO, priority 1998, dated 1999).

Test system: réflexe polysynaptique
Assay: Inhibition of the polysynaptic reflex in the normal rat (RPRN), EMG of biceps femoris
Assay type: in vivo
Conditions: 10 mg/kg, voie i.p
Description: L'activité décontraccurante du composé de l'invention a été déterminée par l'inhibition du réflexe polysynaptique chez le rat normal (RPRN). L'animal est placé en contention en décubitus ventral. Les membres postérieurs sont immobilisés. Les réflexes polysynaptiques sont évoqués dans le muscle Biceps fémoral (fléchisseur de la cuisse) par stimulation électrique de la voûte plantaire (territoire cutané du nerf sural). L'EMG (Electro-Myo-Graphie) est recueilli par deux électrodes en acier inoxydable insérées dans le muscle parallélement aux fibres.
Les électrodes de stimulation en acier inoxydable sont insérées en position sous-cutanée. La stimulation consiste en un choc électrique carré de 0.2-0.4 ms de durée et de 0.2 Hz de fréquence. L'intensité de la stimulation est réglée pour obtenir des réflexes bien constitués et de surface stable (8-12 mA).
L'EMG est amplifié. La surface de chaque réflexe est mesurée.
Des séries de 20 réflexes sont enregistrées toutes les 15 minutes. La surface des 20 réflexes de chaque série est moyennée.
Après plusieurs séries contrôles, le produit à étudier est administré. La moyenne des 20 premières réponses contrôles est prise pour 100 %. L'évolution des réponses EMG est suivie alors pendant 2 ou 3 heures.

COc1c(OC2OC(C(=O)O)C(O)C(O)C2O)cc2c(c1OC)-c1ccc(SC)c(=O)cc1C(NC(C)=O)CC2 (stereo not shown) [composé de l'invention]
inhibe le réflexe polysynaptique: 78%
